Key:
Influenza A virus = assay: Antiviral activity against Influenza A virus (A/Korea/KBNP-0028/2000(H9N2)) infected in chicken egg after 5 days by hemagglutinination assay; format: functional, organism-based; details: 120 h
[1] = Cytotoxicity against CEF cells by MTT assay; format: cell-based, Gallus gallus; details: chicken
[2] = Selectivity index, ratio of CC50 for CEF cells to EC50 for Influenza A virus (A/Korea/KBNP-0028/2000(H9N2)); format: toxicity, cell-based; details: chicken

| SMILES | EC50 (Influenza A virus) [µM] | CC50 [1] [µM] | selectivity ratio [2] |
| --- | --- | --- | --- |
| O=C(/C=C/CCc1ccc(O)c(O)c1)CCc1ccc(O)c(O)c1 [DEHYDROHIRSUTANONOL] | > 350 | > 500 |  |
| O=C(CCc1ccc(O)c(O)c1)C[C@@H](O)CCc1ccc(O)c(O)c1 [HIRSUTANONOL] | > 350 | > 500 |  |
| COc1cc(/C=C/C(=O)O[C@H]2[C@H](O[C@@H](CCc3ccc(O)c(O)c3)CC(=O)CCc3ccc(O)c(O)c3)OC[C@@H](O)[C@@H]2O)ccc1O [OREGONOYL B] | > 350 | > 500 |  |
| O=C(CCc1ccc(O)cc1)C[C@H](CCc1cccc(O)c1)O[C@@H]1OC[C@@H](O)[C@H](O)[C@H]1O | 56.1 | > 560 | > 10 |
| O=C(CCc1ccc(O)c(O)c1)C[C@H](CCc1ccc(O)c(O)c1)O[C@@H]1OC[C@@H](O)[C@H](O)[C@H]1OC(=O)/C=C/c1ccc(O)cc1 [OREGONOYL A] | > 350 | > 500 |  |
| CC(=O)N[C@H]1[C@H]([C@H](O)[C@H](O)CO)OC(C(=O)O)=C[C@@H]1N=C(N)N [ZANAMIVIR] |  | > 753 | > 44 |
| O=C(CCc1ccc(O)c(O)c1)C[C@H](CCc1cccc(O)c1)O[C@@H]1OC[C@@H](O)[C@H](O)[C@H]1O [ALNUSIDE A] | > 350 | > 500 |  |
